Measurements reported in patent publication US20240210412A1, “SULFONYL-TRIAZOLE COMPOUNDS USEFUL AS LIGANDS AND INHIBITORS OF PROSTAGLANDIN REDUCTASE 2” (University of Virginia Patent Foundation, priority 2021, published 2024).
“Also recorded” adds a separate entry of the source.

Legend:
[1] = tested on: Q6IS14; test: SILAC LC-MS ABPP; assay type: cell-based, human; conditions: 25 μM 2 h, live DM93 cells
Protocol: Cells were grown to 90-95% confluence before being washed once with warm, sterile DPBS (1×, 5 mL), followed by addition of 10 mL of serum-free media (supplemented with 1% L-glutamine) containing either DMSO or SuTEx fragment (in DMSO) was added. Light cells were treated with DMSO vehicle while the heavy cells were treated with DMSO or SuTEx fragment (in DMSO) and incubated for 2 hrs. After 2 hrs, the cells were treated with SuTEx alkyne probe (HHS475, 10 μL of 1000× DMSO stock) and incubated for an additional 2 hrs. The media was aspirated and cells washed with cold PBS (5 mL) and harvested. Cells were spun at 500×g for 5 min at 4° C. followed by removal of supernatant. Pellets were resuspended in 1 mL of cold DPBS and spun at 1,400×g for 3 min at 4° C. followed by removal of supernatant. The cells were lysed in PBS by sonication and fractionated (100,000×g, 45 min, 4° C.).The light and heavy soluble fractions were diluted to 2.3 mg/mL in PBS and 432 μL were used for analysis (1 mg total protein). The probe-modified proteomes were conjugated to desthiobiotin-PEG3-azide (10 μl of 10 mM stock in DMSO; 200 μM final concentration) using TCEP (10 μl of fresh 50 mM stock in water, 1 mM final concentration), TBTA ligand (33 μl of a 1.7 mM 4:1 t-butanol/DMSO stock, 100 μM final concentration) and CuSO4 (10 μl of 50 mM stock, 1 mM final concentration). Samples were vortexed to mix and incubated for 1 hr at room temperature. The heavy and light proteomes were mixed 1:1 and the subsequent steps, including LC-MS/MS data analysis, were performed as previously described^[8a].
Coupling cell-based screens with chemical proteomics can facilitate the identification of target protein and binding sites that engage and are irreversibly modified by covalent ligands^[12]. In these assays, covalent ligands block SuTEx activity-based probe (ABP) labeling at protein sites, and the competition of probe labeling can be used to quantify potency and selectivity across the proteome^[10a]. To facilitate quantitative chemical proteomics, DM93 melanoma cells were cultured using stable isotopic labeling by amino acids in cell culture (SILAC)^[13]. Cells cultured in “light” media were treated with dimethyl sulfoxide (DMSO) vehicle while cells cultured in “heavy” media were treated with SuTEx ligand (25 μM, 2 hours, 37° C.). Next, cells were treated with HHS-475 probe (100 μM, 2 hours, 37° C.) followed by lysis and processing of proteomes for analysis. Probe-modified proteins from the soluble fraction were conjugated to a desthiobiotin-azide tag by copper-catalyzed azide-alkyne cycloaddition (CuAAC)^[14] followed by mixing of the light and heavy proteomes. The combined proteomes were digested with trypsin protease to produce probe-modified peptides, followed by enrichment and purification by avidin affinity chromatography. Probe-modified peptides were resolved, identified, and quantified by high-resolution liquid chromatography-tandem mass spectrometry (LC-MS/MS). Resultant data were analyzed as previously described^[8a, 10a]. Table 2, below, lists sites of modification targeted by sulfonyl-triazole compounds HHS-0101, HHS-0201, HHS-0301, HHS-0401, and HHS-0701. The format of the table is as follows: protein Uniprot accession number (see uniprot.org); tyrosine site (amino acid position) modified; treatment (sulfonyl-triazole compound identification number, followed by Y (where if multiple compounds modify the same site, the compounds are separated by vertical lines).

[2] = biological target: T1, P16930 (fumarylacetoacetase, FAH) (Homo sapiens, UniProt P16930); test: SILAC LC-MS ABPP; assay type: cell-based
T1 construct: endogenous in cells; host or cells: DM93 (SILAC)
Protocol: Cells were grown to 90-95% confluence before being washed once with warm, sterile DPBS (1×, 5 mL), followed by addition of 10 mL of serum-free media (supplemented with 1% L-glutamine) containing either DMSO or SuTEx fragment (in DMSO) was added. Light cells were treated with DMSO vehicle while the heavy cells were treated with DMSO or SuTEx fragment (in DMSO) and incubated for 2 hrs. After 2 hrs, the cells were treated with SuTEx alkyne probe (HHS475, 10 μL of 1000× DMSO stock) and incubated for an additional 2 hrs. The media was aspirated and cells washed with cold PBS (5 mL) and harvested. Cells were spun at 500×g for 5 min at 4° C. followed by removal of supernatant. […]
Coupling cell-based screens with chemical proteomics can facilitate the identification of target protein and binding sites that engage and are irreversibly modified by covalent ligands^[12]. In these assays, covalent ligands block SuTEx activity-based probe (ABP) labeling at protein sites, and the competition of probe labeling can be used to quantify potency and selectivity across the proteome^[10a]. To facilitate quantitative chemical proteomics, DM93 melanoma cells were cultured using stable isotopic labeling by amino acids in cell culture (SILAC)^[13]. […] Probe-modified peptides were resolved, identified, and quantified by high-resolution liquid chromatography-tandem mass spectrometry (LC-MS/MS). […]

[3] = biological target: T2, O75150 (Homo sapiens, UniProt O75150); test: SILAC LC-MS ABPP; assay type: cell-based; conditions: 25 μM 2 h, live DM93 cells
T2 construct: endogenous in cells; host or cells: DM93
In short: (§1)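 Quantification uses SILAC ratios from LC-MS/MS of probe-modified tyrosine peptides. DM93 melanoma cells: heavy treated with 25 μM SuTEx ligand, light with DMSO (2 h, 37 °C), followed by HHS-475 probe at 100 μM for 2 h.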

[4] = biological target: T3, Q04637 (Homo sapiens, UniProt Q04637); test: SILAC LC-MS ABPP; assay type: cell-based; conditions: 25 μM 2 h, live DM93 cells
T3 construct: performing SuTEx compound screening directly in cells; endogenous in cells; host or cells: DM93 cells (SILAC)
In short: as §1

[5] = biological target: T4, Fumarylacetoacetase (FAH) (Homo sapiens, UniProt P16930); test: gel-based ABPP, HHS-475 probe, HEK293T cells expressing recombinant FAH; assay type: cell-based; conditions: live HEK293T cells, ligand 25 μM or varying, 2 h; HHS-475 100 μM
T4 construct: FLAG; host or cells: HEK293T
Protocol: HEK293T cells at 30-50% confluency were transfected with 2.6 μg of FAH or PTGR2 plasmid DNA in a serum-free media/polyethyleneimine solution for 48 hrs. The cells were washed once with warm, sterile DPBS (1×, 5 mL), and then 10 mL of serum-free media (supplemented with 1% L-glutamine) containing either DMSO or SuTEx fragment (in DMSO) was added. After 2 hrs, the cells were treated with 100 μM of SuTEx alkyne probe (HHS-475, 10 μL of 1000× DMSO stock) and incubated for an additional 2 hrs. The media was aspirated and cells washed with cold PBS (5 mL) and harvested. Cells were spun at 500×g for 5 min at 4° C. and supernatant was removed. Pellets were resuspended in 1 mL of cold DPB S and spun at 1,400×g for 3 min at 4° C. and supernatant was removed. […] The samples were analyzed by SDS-PAGE (30 μL) and imaged by in-gel fluorescence scanning.
Competitive gel-based chemoproteomic assays were performed using recombinant proteins from select targets to verify our LC-MS findings. […] Quantitative chemical proteomic studies identified HHS-0401 as a ligand for the Y244 site of FAH. These findings were confirmed by treating HEK293T cells expressing recombinant FAH with SuTEx ligands (25 μM, 2 hours, 37° C.) followed by labeling with HHS-475 probe (100 μM, 2 hours, 37° C.), cell lysis, and conjugation with rhodamine azide by CuAAC to visualize probe-modified proteins using in-gel fluorescence scanning.

T3 sequence (Q04637 whole entry): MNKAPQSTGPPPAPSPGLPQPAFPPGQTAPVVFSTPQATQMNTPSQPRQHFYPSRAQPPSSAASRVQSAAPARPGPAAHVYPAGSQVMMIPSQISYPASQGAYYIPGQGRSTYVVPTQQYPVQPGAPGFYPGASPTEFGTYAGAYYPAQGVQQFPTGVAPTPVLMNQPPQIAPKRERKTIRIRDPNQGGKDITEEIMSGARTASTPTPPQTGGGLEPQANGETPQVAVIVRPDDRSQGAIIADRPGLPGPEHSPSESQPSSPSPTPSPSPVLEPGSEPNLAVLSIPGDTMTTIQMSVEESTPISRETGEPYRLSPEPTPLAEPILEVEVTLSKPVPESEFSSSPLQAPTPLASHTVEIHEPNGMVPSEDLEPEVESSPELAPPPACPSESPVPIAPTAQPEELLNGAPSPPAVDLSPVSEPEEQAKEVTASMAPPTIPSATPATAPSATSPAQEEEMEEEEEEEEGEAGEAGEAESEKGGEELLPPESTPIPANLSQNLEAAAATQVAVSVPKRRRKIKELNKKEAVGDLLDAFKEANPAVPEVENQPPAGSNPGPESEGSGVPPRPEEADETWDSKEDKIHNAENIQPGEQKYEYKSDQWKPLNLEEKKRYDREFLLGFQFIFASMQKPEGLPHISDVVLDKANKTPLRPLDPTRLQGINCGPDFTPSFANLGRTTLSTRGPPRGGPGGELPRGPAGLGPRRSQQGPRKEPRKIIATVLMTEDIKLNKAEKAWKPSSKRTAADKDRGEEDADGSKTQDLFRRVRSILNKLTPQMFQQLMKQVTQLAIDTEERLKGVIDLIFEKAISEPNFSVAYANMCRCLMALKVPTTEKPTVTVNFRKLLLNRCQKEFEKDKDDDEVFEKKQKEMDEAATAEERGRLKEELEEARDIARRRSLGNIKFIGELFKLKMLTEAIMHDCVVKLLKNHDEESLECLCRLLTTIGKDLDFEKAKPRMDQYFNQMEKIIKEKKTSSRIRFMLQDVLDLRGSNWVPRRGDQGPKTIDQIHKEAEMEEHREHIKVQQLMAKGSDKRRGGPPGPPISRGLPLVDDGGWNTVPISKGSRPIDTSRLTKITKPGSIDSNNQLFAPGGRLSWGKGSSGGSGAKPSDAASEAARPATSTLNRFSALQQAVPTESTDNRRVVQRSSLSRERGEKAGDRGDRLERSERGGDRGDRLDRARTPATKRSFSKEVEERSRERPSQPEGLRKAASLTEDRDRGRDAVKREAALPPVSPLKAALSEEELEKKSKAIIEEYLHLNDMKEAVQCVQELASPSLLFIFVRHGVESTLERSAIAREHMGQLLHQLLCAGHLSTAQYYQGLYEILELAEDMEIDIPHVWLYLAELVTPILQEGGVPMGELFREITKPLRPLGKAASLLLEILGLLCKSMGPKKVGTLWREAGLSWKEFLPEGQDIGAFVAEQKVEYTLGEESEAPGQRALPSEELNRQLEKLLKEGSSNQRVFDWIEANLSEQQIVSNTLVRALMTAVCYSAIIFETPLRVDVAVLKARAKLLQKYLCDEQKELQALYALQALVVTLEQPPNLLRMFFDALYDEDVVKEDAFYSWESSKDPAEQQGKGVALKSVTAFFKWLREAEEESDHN
T2 sequence (O75150 whole entry): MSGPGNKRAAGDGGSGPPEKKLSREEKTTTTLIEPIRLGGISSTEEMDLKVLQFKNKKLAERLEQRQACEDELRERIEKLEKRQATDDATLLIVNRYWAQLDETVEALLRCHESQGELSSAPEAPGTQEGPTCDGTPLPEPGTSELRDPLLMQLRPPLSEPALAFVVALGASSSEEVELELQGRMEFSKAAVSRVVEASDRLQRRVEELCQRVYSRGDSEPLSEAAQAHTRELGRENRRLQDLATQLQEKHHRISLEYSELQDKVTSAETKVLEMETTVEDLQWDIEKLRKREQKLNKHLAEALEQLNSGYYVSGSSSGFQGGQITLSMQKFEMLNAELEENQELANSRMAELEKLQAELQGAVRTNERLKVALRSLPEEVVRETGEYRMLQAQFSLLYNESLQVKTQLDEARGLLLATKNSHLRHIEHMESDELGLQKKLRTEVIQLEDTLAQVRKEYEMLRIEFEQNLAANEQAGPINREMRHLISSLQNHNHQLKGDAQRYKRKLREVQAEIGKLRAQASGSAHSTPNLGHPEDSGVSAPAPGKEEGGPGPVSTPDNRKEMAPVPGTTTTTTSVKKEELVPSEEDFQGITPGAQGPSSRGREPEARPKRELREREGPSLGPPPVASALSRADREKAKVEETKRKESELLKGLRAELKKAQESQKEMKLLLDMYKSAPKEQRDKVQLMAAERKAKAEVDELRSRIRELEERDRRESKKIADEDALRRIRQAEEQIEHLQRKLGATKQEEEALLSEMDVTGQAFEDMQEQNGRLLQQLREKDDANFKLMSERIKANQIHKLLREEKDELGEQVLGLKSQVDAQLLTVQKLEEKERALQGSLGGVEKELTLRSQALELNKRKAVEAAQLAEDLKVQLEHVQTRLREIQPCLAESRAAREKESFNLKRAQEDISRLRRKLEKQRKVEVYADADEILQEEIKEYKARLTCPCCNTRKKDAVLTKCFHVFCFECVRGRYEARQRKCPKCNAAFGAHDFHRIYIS
T1 sequence (P16930 whole entry, one chain of several): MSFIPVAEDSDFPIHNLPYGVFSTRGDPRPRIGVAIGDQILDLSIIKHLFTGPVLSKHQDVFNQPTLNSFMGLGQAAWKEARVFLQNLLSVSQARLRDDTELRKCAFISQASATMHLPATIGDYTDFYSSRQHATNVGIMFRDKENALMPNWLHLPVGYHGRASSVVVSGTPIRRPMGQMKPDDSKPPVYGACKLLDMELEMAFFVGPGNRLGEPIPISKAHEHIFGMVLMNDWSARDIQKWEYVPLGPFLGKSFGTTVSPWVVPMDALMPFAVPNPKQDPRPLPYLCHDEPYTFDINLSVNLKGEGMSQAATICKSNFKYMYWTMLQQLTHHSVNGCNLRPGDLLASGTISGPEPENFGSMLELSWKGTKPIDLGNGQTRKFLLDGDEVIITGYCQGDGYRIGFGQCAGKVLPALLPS
T4 sequence (P16930 whole entry): as the sequence (P16930 whole entry, one chain of several) above

O=C(NC1CC1)c1ccc(S(=O)(=O)n2cncn2)cc1 [HHS-0101, 4-((1H-1,2,4-triazol-1-yl)sulfonyl)-N-cyclopropylbenzamide]
liganded tyrosine site 127 [1]: HHS0101.Y|HHS0201.Y|HHS0701.Y (tyrosine sites that showed >80% reductions (SR >5) in probe labeling in cells treated with compounds (liganded sites))
liganded tyrosine site 244 ([2]; 25 μM 2 h, live DM93 cells): HHS0101.Y|HHS0201.Y|HHS0301.Y|HHS0401.Y|HHS0701.Y (tyrosine sites that showed >80% reductions (SR >5) in probe labeling in cells treated with compounds (liganded sites))
liganded tyrosine site 928 [3]: HHS0101.Y (tyrosine sites that showed >80% reductions (SR >5) in probe labeling in cells treated with compounds (liganded sites))

O=C(NCC1CC1)c1ccc(S(=O)(=O)n2cncn2)cc1 [HHS-0201, 4-((1H-1,2,4-triazol-1-yl)sulfonyl)-N-(cyclopropylmethyl)benzamide]
liganded tyrosine site 103 [4]: HHS0201.Y|HHS0301.Y|HHS0401.Y|HHS0701.Y (tyrosine sites that showed >80% reductions (SR >5) in probe labeling in cells treated with compounds (liganded sites))

O=C(NC1CCCCC1)c1ccc(S(=O)(=O)n2cncn2)cc1 [HHS-0301, 4-((1H-1,2,4-triazol-1-yl)sulfonyl)-N-cyclohexylbenzamide]
liganded tyrosine site 258 [3]: HHS0301.Y (tyrosine sites that showed >80% reductions (SR >5) in probe labeling in cells treated with compounds (liganded sites))
liganded tyrosine site 81 [4]: HHS0301.Y (tyrosine sites that showed >80% reductions (SR >5) in probe labeling in cells treated with compounds (liganded sites))
liganded tyrosine site 104 [4]: HHS0301.Y|HHS0701.Y (tyrosine sites that showed >80% reductions (SR >5) in probe labeling in cells treated with compounds (liganded sites))

O=C(NCc1ccccc1)c1ccc(S(=O)(=O)n2cncn2)cc1 [HHS-0401, 4-((1H-1,2,4-triazol-1-yl)sulfonyl)-N-benzylbenzamide]
FAH Y244 site liganded ([2]; live DM93 cells treated with ligand): > 90%
blockade of HHS-475 labeling of FAH [5]: blocked HHS-475 labeling of FAH; also recorded: competing probe labeling of recombinant FAH in a concentration-dependent manner
